Laboratory results: patent publication US12227485B2, “Compounds useful for the treatment of infection with Mannheimia haemolytica or Histophilus somni” (Intervet Inc., priority 2018, dated 2025)
Converted amounts (≈) assume the structure as drawn.

What was measured:
[1] = system: Mannheimia haemolytica; experiment: MIC by broth-microdilution method (CLSI VET01-A4), Mannheimia haemolytica strains; format: cell-based; conditions: for MIC MH 6357: Mannheimia haemolytica MH 6357 (M7/2), reference strain (cattle infection strain); for MIC MH 6374: Mannheimia haemolytica MH 6374 (ATCC 33396), reference strain; for MIC MH 10720: Mannheimia haemolytica MH 10720 (154); for MIC MH 10720 / MIC MH 12587 / MIC MH 13093: BRD field isolate; for MIC MH 12587: Mannheimia haemolytica MH 12587 (1071), macrolide-resistance: erm+, E+; for MIC MH 13093: Mannheimia haemolytica MH 13093 (XB0472-6014.1)
Procedure: (§1) For example, representative compounds were tested against Mannheimia haemolytica and Pasteurella multocida, using the conventional broth-dilution assay.
(§2) The Minimum inhibitory concentrations (MIC) of compounds according to the invention for a number of veterinary bacterial pathogens were determined by the broth-microdilution method according to CLSI document VET01-A4.
(§3) Microdilution trays containing a doubling dilution series of the test compound were used for the tests. The MIC results were interpreted according to the CLSI documents VET01-S3. The lowest concentration of compound at which no visible growth (i.e. no turbidity) detected by the unaided eye was recorded as the MIC.

[2] = system: Pasteurella multocida; experiment: MIC by broth-microdilution method (CLSI VET01-A4), Pasteurella multocida strains; format: cell-based; conditions: for MIC PM 6267: Pasteurella multocida PM 6267 (P 2225 (L386)), reference strain (mouse infection strain); for MIC PM 6391: Pasteurella multocida PM 6391 (ATCC 43137), reference strain; for MIC PM 10775: Pasteurella multocida PM 10775 (080130003051); for MIC PM 10775 / MIC PM 12080: BRD field isolate; for MIC PM 12080: Pasteurella multocida PM 12080 (IV102277-0093)
Procedure: as §1, §2, §3

SMILES	MIC MH 6357 [1] [µM]	MIC MH 6374 [1] [µM]	MIC MH 10720 [1] [µM]	MIC MH 12587 [1] [µM]	MIC MH 13093 [1] [µM]	MIC PM 6267 [2] [µM]	MIC PM 6391 [2] [µM]	MIC PM 10775 [2] [µM]	MIC PM 12080 [2] [µM]
C[C@@H](O)[C@H](Nc1ncnc2cc(C#Cc3ccc(CN4CCOCC4)cc3)ccc12)C(=O)NO [Compound 1]	1.6 (≈ 0.738 µg/mL)	3.1 (≈ 1.43 µg/mL)	0.2 (≈ 0.0923 µg/mL)	3.1 (≈ 1.43 µg/mL)	3.1 (≈ 1.43 µg/mL)	1.6 (≈ 0.738 µg/mL)	0.2 (≈ 0.0923 µg/mL)	≤0.1	≤0.1
COCCNCc1ccc(C#Cc2ccc3c(N[C@H](C(=O)NO)[C@@H](C)O)ncnc3c2)cc1 [Compound 3]	6.3 (≈ 2.83 µg/mL)	6.3 (≈ 2.83 µg/mL)	6.3 (≈ 2.83 µg/mL)	12.5 (≈ 5.62 µg/mL)	6.3 (≈ 2.83 µg/mL)	0.2 (≈ 0.0899 µg/mL)	0.4 (≈ 0.18 µg/mL)	≤0.1	3.1 (≈ 1.39 µg/mL)
C[C@@H](O)[C@H](Nc1nsc2cc(C#Cc3ccc(CNC4CC4)cc3)ccc12)C(=O)NO [Compound 10]	0.2 (≈ 0.0873 µg/mL)	0.4 (≈ 0.175 µg/mL)	≤0.1	0.8 (≈ 0.349 µg/mL)	0.4 (≈ 0.175 µg/mL)	≤0.1	>100	≤0.1	≤0.1
C=CCNCc1ccc(C#Cc2ccc3c(N[C@H](C(=O)NO)[C@@H](C)O)nsc3c2)cc1 [Compound 11]	0.4 (≈ 0.175 µg/mL)	0.4 (≈ 0.175 µg/mL)	≤0.1	1.6 (≈ 0.698 µg/mL)	0.8 (≈ 0.349 µg/mL)	≤0.1	0.2 (≈ 0.0873 µg/mL)	≤0.1	0.4 (≈ 0.175 µg/mL)
C[C@@H](O)[C@H](Nc1nsc2cc(C#Cc3ccc(CNCC(F)(F)F)cc3)ccc12)C(=O)NO [Compound 15]	1.6 (≈ 0.766 µg/mL)	1.6 (≈ 0.766 µg/mL)	≤0.1	3.1 (≈ 1.48 µg/mL)	1.6 (≈ 0.766 µg/mL)	≤0.1	>100	≤0.1	0.4 (≈ 0.191 µg/mL)
C[C@@H](O)[C@H](Nc1ncnc2cc(C#Cc3ccc(CNC4CC4)cc3)ccc12)C(=O)NO [Compound 2]	0.8 (≈ 0.345 µg/mL)	1.6 (≈ 0.69 µg/mL)	≤0.1	3.1 (≈ 1.34 µg/mL)	3.1 (≈ 1.34 µg/mL)	1.6 (≈ 0.69 µg/mL)	0.2 (≈ 0.0863 µg/mL)	≤0.1	≤0.1
C[C@@H](O)[C@H](Nc1ncnc2cc(C#Cc3ccc(CNCC(F)(F)F)cc3)ccc12)C(=O)NO [Compound 6]	0.8 (≈ 0.379 µg/mL)	0.8 (≈ 0.379 µg/mL)	0.4 (≈ 0.189 µg/mL)	1.6 (≈ 0.758 µg/mL)	0.8 (≈ 0.379 µg/mL)	≤0.1	≤0.1	≤0.1	0.4 (≈ 0.189 µg/mL)
C[C@@H](O)[C@H](Nc1nsc2cc(C#Cc3ccc(CNCc4ccccc4)cc3)ccc12)C(=O)NO [Compound 14]	0.8 (≈ 0.389 µg/mL)	0.8 (≈ 0.389 µg/mL)	≤0.1	1.6 (≈ 0.779 µg/mL)	0.8 (≈ 0.389 µg/mL)	≤0.1	100 (≈ 48.7 µg/mL)	≤0.1	0.2 (≈ 0.0973 µg/mL)
COCCNCc1ccc(C#Cc2ccc3c(N[C@H](C(=O)NO)[C@@H](C)O)nsc3c2)cc1 [Compound 12]	0.8 (≈ 0.364 µg/mL)	0.8 (≈ 0.364 µg/mL)	0.2 (≈ 0.0909 µg/mL)	3.1 (≈ 1.41 µg/mL)	1.6 (≈ 0.727 µg/mL)	≤0.1	>100	≤0.1	0.8 (≈ 0.364 µg/mL)
COCCNCc1ccc(C#Cc2ccc3c(NC(C(=O)NO)C(C)(C)N)ncnc3c2)cc1 (racemic) [Compound 18]	25 (≈ 11.6 µg/mL)	25 (≈ 11.6 µg/mL)	6.3 (≈ 2.91 µg/mL)	50 (≈ 23.1 µg/mL)	25 (≈ 11.6 µg/mL)	3.1 (≈ 1.43 µg/mL)	6.3 (≈ 2.91 µg/mL)	0.8 (≈ 0.37 µg/mL)	12.5 (≈ 5.78 µg/mL)
C[C@@H](O)[C@H](Nc1nsc2cc(C#Cc3ccc(CN4CCOCC4)cc3)ccc12)C(=O)NO [Compound 13]	3.1 (≈ 1.45 µg/mL)	6.3 (≈ 2.94 µg/mL)	1.6 (≈ 0.747 µg/mL)	6.3 (≈ 2.94 µg/mL)	3.1 (≈ 1.45 µg/mL)	≤0.1	100 (≈ 46.7 µg/mL)	≤0.1	1.6 (≈ 0.747 µg/mL)
C[C@@H](O)[C@H](Nc1ncnc2cc(C#Cc3ccc(CNCc4ccccc4)cc3)ccc12)C(=O)NO [Compound 5]	0.8 (≈ 0.385 µg/mL)	0.8 (≈ 0.385 µg/mL)	0.8 (≈ 0.385 µg/mL)	3.1 (≈ 1.49 µg/mL)	1.6 (≈ 0.77 µg/mL)	≤0.1	0.2 (≈ 0.0963 µg/mL)	≤0.1	0.8 (≈ 0.385 µg/mL)
C=CCNCc1ccc(C#Cc2ccc3c(N[C@H](C(=O)NO)[C@@H](C)O)ncnc3c2)cc1 [Compound 4]	1.6 (≈ 0.69 µg/mL)	3.1 (≈ 1.34 µg/mL)	1.6 (≈ 0.69 µg/mL)	6.3 (≈ 2.72 µg/mL)	3.1 (≈ 1.34 µg/mL)	0.2 (≈ 0.0863 µg/mL)	0.4 (≈ 0.173 µg/mL)	≤0.1	1.6 (≈ 0.69 µg/mL)
